# Assay results reported in US11484608B2, “Non-invasive assessment of hepatic mitochondrial metabolism by positional isotopomer NMR tracer analysis (PINTA)” (YALE UNIVERSITY, priority 2017, dated 2022).
# Experiments:
# CPT-1 = target: T1, CPT-1 (Rattus norvegicus, UniProt P32198); assay: CPT-1 inhibitor etomoxir in 0, 6, 16 and 48 hr fasted rats; assay type: in vivo
# T1 construct: from tissue; host or cells: live rat, in vivo (intraperitoneal dosing); liver is the tissue discussed
# T1 sequence (P32198 1-773): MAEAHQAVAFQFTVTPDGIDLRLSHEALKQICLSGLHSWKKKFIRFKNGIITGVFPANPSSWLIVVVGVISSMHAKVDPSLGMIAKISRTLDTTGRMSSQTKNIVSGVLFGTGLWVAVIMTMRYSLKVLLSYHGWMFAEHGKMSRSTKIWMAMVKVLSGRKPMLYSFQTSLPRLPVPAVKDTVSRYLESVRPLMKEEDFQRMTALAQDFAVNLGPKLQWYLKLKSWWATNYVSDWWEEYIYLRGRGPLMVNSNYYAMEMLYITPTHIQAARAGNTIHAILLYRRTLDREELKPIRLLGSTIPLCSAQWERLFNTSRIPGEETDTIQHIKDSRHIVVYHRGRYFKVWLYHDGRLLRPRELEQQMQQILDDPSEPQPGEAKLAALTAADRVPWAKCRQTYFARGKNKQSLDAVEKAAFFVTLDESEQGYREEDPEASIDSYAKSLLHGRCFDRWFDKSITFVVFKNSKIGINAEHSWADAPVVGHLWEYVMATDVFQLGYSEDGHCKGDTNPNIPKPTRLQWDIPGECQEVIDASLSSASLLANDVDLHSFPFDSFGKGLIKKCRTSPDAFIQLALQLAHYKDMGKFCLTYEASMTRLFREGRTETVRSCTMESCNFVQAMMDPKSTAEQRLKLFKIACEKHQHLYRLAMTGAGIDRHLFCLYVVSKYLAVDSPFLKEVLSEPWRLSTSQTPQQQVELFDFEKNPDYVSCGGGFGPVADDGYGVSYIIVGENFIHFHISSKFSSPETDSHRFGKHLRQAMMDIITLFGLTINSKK
# Description: 8, 16, and 48 hr fasted rats were injected with a small molecule inhibitor of glycogen phosphorylase, 1-(3-(3-(2-Chloro-4,5-difluorobenzoyl) ureido)-4-methoxyphenyl)-3-methylurea (Sigma #361515; 5 mg/kg IV) and a tracer infusion of [2,3,3,3-^2H4]alanine ([…]prime for 5 min and […] continuous) and [3-^3H]glucose (0.3 μCi/min prime for 5 min and 0.3 μCi/min continuous) as well as [^13C4] β-hydroxybutyrate, [1,1,2,3,3-^2H5]glycerol, and [^13C16]palmitate at the rates listed in Table 9, for 120 min. Blood samples were obtained before (time zero) and 120 min after treatment with the glycogen phosphorylase inhibitor for measurement of turnover rates and plasma hormone/substrate concentrations. Hepatic acetyl-CoA content was altered by treatment with a CPT-1 inhibitor (etomoxir, 8 mg/kg) or an ATGL inhibitor (atglistatin, […]) in 0, 6, 16, and 48 hr fasted rats. Both agents were solubilized by suspending the drug in 4% ethanol/96% normal saline, heating to 60° C., and sonicating, and were cooled to room temperature before they were injected intraperitoneally. […] In these animals plasma glucose concentrations were measured every 15 minutes and a variable infusion of 20% glucose (Pfizer Hospira, Lake Forest, Ill.) was used to maintain plasma glucose concentrations ˜3.6-3.7 mM. The physiologic role of glucocorticoids was assessed in 6 and 48 hr fasted rats by treatment with a glucocorticoid receptor antagonist, mifepristone. Following a 2 hr tracer infusion at the rates described above to assess fatty acid, glycerol, glucose, and β-hydroxybutyrate turnover, rats were injected with mifepristone (40 mg/kg) IV. The tracer infusion was continued and the tracer of each of the above substrates was again measured 2 hr after treatment with mifepristone.
# All whole-body substrate turnover rates were calculated using the equation Turnover=([Tracer APE/Plasma APE]−1)*Infusion rate, where APE designates the atom percent enrichment measured by mass spectrometry as described below (Biochemical Analysis). All chemicals used for flux analysis were obtained from SIGMA. Turnover of glucose, glycerol, and β-hydroxybutyrate were determined by gas chromatography-mass spectrometry (GC-MS). Briefly, both glucose and glycerol were deprotonized with 5 volumes of methanol, derivitized with 3 volumes of 1:1 acetic anhydride:pyridine, heated to 65° C. for 20 min, and 1 volume of methanol was added, then GC-MS was used in CI mode to measure glucose enrichment and EI mode to measure glycerol enrichment, with turnover calculated using the equation above. β-Hydroxybutyrate was deprotonized with 5 volumes of methanol and derivitized with 3 volumes of n-butanol 4N HCl, after which the samples were heated to 65° C. for 60 min, evaporated under N2 gas, and re-suspended in […] of trifluoroacetic acid:methylene chloride (1:7). Fatty acid turnover was measured by determining the plasma palmitate enrichment by GC-MS. Samples were prepared for measurements of palmitate enrichment by evaporating […] plasma, dissolving in […] 1:1 chloroform:methanol and derivitizing with […] boron trifluoride/methanol, then heating to 100° C. for 5 min, adding 2 mL pentane and 1 mL water, and centrifuging at low speed for 5 min. […] Alanine turnover was determined in rats infused with [2,3,3,3-^2H4]alanine by preparing samples to measure alanine enrichment by GC/MS (CI mode) using the same protocol as was employed to measure β-hydroxybutyrate enrichment.
# [1] = test system: hepatic mitochondrial fluxes (VPC, VCS); assay: PINTA / ex vivo NMR tracer study in rats infused with [3-^13C]lactate and [3-^3H]glucose (Example 1); conditions: for VPDH/VCS (%) / VPK+ME/VPC+PDH (%): rat liver; for VPDH/VCS (%) / VPK+ME/VPC+PDH (%) / VPC/VEGP (%): 120 min [3-^13C]lactate infusion, mean ± S.E.M.; for VPC/VEGP (%): rats
# Excerpt: Male Sprague-Dawley rats (˜10 weeks of age) were ordered from Charles River (Wilmington, Mass.) at ˜300 g and fed regular chow unless otherwise specified. […] Prior to studies, rats underwent surgery under general isoflurane anesthesia to place polyethylene catheters in the jugular vein and common carotid artery (PE90 and PE50 tubing, respectively; Instech, Plymouth Meeting, Pa.). After 1 week, recovery was verified by confirming that the rats had regained their surgical weight. Unless otherwise specified, all experiments were performed following an overnight fast (16 hrs food withdrawal prior to sacrifice). In both the rodent and human studies, data are represented as the mean of two technical replicates for each subject (i.e. two technical replicates per biological replicate). Sample sizes were selected to give power to detect moderate to large differences between groups (n=5-6 per group), and all animals were included in the final analysis.
# The investigator performing the animal studies was not blinded for practical reasons, but the investigators analyzing fluxes were blinded as to the group allocation.
# The flux calculations required the following equations using [^13C] glucose positional enrichment in plasma or liver, determined by NMR and GC/MS mass spectrometry. VPC is the rate of pyruvate carboxylase flux as determined from the anaplerotic flow into oxaloacetate (OAA). VCS is defined as the flux of the citrate synthase reaction in the citric acid cycle. […] G2 denotes [m+2] glucose arising from the condensation of two singly-labeled trioses.
# GC/MS was used to measure m+1 and m+2 [^13C]glucose enrichment. The total m+1 and m+2 [^13C]glucose enrichment was measured using a pentaacetate derivative: plasma or liver samples were deproteinized using 5 volumes of methanol, dried, and derivatized with 75 μL of 1:1 acetic anhydride:pyridine. After heating to 65° C. for 20 min, the reaction was terminated by adding 25 μL methanol, and m+1 and m+2 (as well as m+3 . . . m+6) were determined by GC/MS (CI mode, m/z 331 [m], 332 [m+1], 333 [m+2], . . . 337 [m+6]). The m+1 and m+2 [^13C] enrichments of the glucose C4C5C6 fragment were determined by generating the aldonitrile pentapropionate derivative: plasma or NMR liver extract samples were dried under N2 gas, and 50 μl hydroxylamine hydrochloride (20 mg/ml in pyridine) were added. The samples were heated at 90° C. for 60 min, then 100 μl propionic anhydride was added, after which the samples were heated at 60° C. for 30 min. Finally, the samples were evaporated under N2 gas, resuspended in ethyl acetate, and the m+1 and m+2 enrichment of the glucose C4C5C6 fragment was measured by GC/MS.
# [^13C]alanine enrichment was measured by GC/MS. [^13C] NMR spectroscopy using the BRUKER TOPSPIN® system was utilized to measure relative positional 13C-enrichment of glucose, and combined with the total [^13C]glucose enrichment ([m+1]+2*[m+2]) measured by GC/MS to calculate the positional enrichment of [13C]glucose.
# Total [^13C]glutamate enrichment was determined by LC-MS/MS. Approximately 100 mg of liver tissue was weighed out and homogenized in 500 μl ice-cold methanol using a TissueLyser, then centrifuged at 4000 rpm for 10 minutes. The supernatant was then purified by centrifugation (4000 rpm, 10 min) through the PALL NANOSEP® filter (100K) (Port Washington, N.Y.). Glutamate 13C enrichment ([m+1], [m+2]) was then assessed by LC-MS/MS using an AB SCIEX QTRAP 6500 (Framingham, Mass.), equipped with a SHIMADZU ultra-fast liquid chromatography (UFLC) system (Columbia, Md.) and electrospray ionization (ESI) source with negative-ion detection. The measured ion pairs were 146/128 (m0), 147/129 (m+1), and 148/130 (m+2).
# Positional enrichment of glucose, glutamate, and alanine was measured by 13C NMR.
# [2] = test system: primary mouse hepatocytes; assay: In vitro glucose production, VPC and lipolysis in isolated hepatocytes; assay type: cell-based; conditions: isolated hepatocytes, 1 mM hydroxymalonate
# Description: For in vitro glucose production and lipolysis studies, primary mouse hepatocytes were isolated by the Yale Liver Center. Following removal of cell debris by Percoll density gradient centrifugation, cells were plated on 6-well collagen-I coated dishes (4.0×10^5 cells/well) in 2 ml recovery media (DMEM High Glucose containing 10% FBS, 2% penicillin-streptomycin, 100 nM dexamethasone, 1 nM insulin, and 10 mM HEPES). After incubation for 6 hr at 37° C. and 5% CO2, the attached cells were washed once in 1×PBS and then incubated overnight in 2 ml Low Glucose Culture Media (DMEM Low Glucose supplemented with 10% FBS, 2% penicillin-streptomycin and 10 mM HEPES for glucose production studies) or Serum Free Low Glucose Culture Media (DMEM Low Glucose supplemented with 0.5% fatty acid free BSA, 2% penicillin-streptomycin and 10 mM HEPES for lipolysis assays). […] After incubation for 8 hr at 37° C. and 5% CO2, cell culture media was collected for analysis of glucose, NEFA, and glycerol concentrations as described above. VPC was determined by measuring VPC/VEGP by PINTA as described above using 300 μL of the collected media, and multiplying this ratio by the measured glucose production rate. In a subset of studies, cells were incubated for 8 hr during the glucose production assay in media containing one of the following agents (all dissolved in 0.5% DMSO), or 0.5% DMSO vehicle: 20 μM ET-18-OCH3 (Santa Cruz), 100 μM U-73122 (Sigma), 30 nM thapsigargin (Sigma), 100 nM vasopressin (Sigma) 50 μM 2-APB (R&D Systems), 70 μM caffeine (Sigma), 1 mM malic enzyme inhibitor hydroxymalonate (Sigma). To inhibit PKA, hepatocytes were incubated in H-89 […] hydrate (Sigma, 25 μM) dissolved in media, or media lacking H-89 as a control. In the insulin treatment studies, hepatocytes were incubated in 1 nM insulin with 5% BSA and glucose production media for the duration of the glucose production assay. In the in vitro atglistatin study, hepatocytes were incubated in 10 μM atglistatin in 0.1% EtOH, or 0.1% EtOH vehicle. All values were normalized to total protein content determined from whole-cell lysates by a BCA protein assay (Thermo Fisher Scientific) according to the manufacturer's instructions and expressed as fold change verses vehicle-treated cells.
compound,measurement,setting,value
CCOC(=O)[C@@]1(CCCCCCOc2ccc(Cl)cc2)CO1 [etomoxir],plasma corticosterone concentrations,CPT-1; 16- and 48-hr fasted rats,increases
same,reductions in plasma leptin concentrations,CPT-1; 16- and 48-hr fasted rats,50%
same,"hepatic acetyl-CoA content, hepatic gluconeogenesis, and plasma glucose and insulin concentrations",CPT-1; 16- to 48-hr fasted rats,suppressed
same,WAT lipolysis,CPT-1; fasted rats,increased
same,hepatic acetyl-CoA content,CPT-1; fasted rats,suppression
same,plasma epinephrine or norepinephrine concentrations,CPT-1; fasted rats,no differences
same,plasma lactate and hepatic malonyl-CoA concentrations,CPT-1; fasted rats,unchanged
same,β-hydroxybutyrate turnover,CPT-1; fasted rats,suppression
same,plasma glucose concentrations,"CPT-1; fasted rats, 8 mg/kg IP, 2 hr",lowered
same,plasma insulin concentrations,"CPT-1; fasted rats, 8 mg/kg IP, 2 hr",lowered
same,whole body glucose turnover,"CPT-1; fasted rats, 8 mg/kg IP, 2 hr",lowered
"O=C(O)C(O)C(=O)O [ME inhibitor, hydroxymalonate]",VPDH/VCS (%),[1],2.0 ± 1.1%
same,VPK+ME/VPC+PDH (%),[1],7.9 ± 2.1%
same,VPC/VEGP (%),[1],50 ± 2%
same,basal or glucagon-stimulated glucose production or VPC,[2],no impact
[13CH3]C(O)C(=O)O (stereo not shown) [[3-^13C]lactate],plasma lactate enrichment,[1]; rats infused with 40 μmol/(kg-min),~45%
"CNC[C@H](O)c1ccc(O)c(O)c1 [Epinephrine, epinephrine]",VPDH/VCS (%),[1],4.3 ± 1.0%
same,VPK+ME/VPC+PDH (%),[1],5.4 ± 0.1%
same,VPC/VEGP (%),[1],67 ± 2%
